Among the data in patent US20060079453A1, “Hla binding peptides and their uses” (priority 2002, published 2006) are IC50 values, retold here.

Targets include HLA-DR DRB1*0401 (DR4) (Homo sapiens, UniProt P01903+P01911, A100K/A169T/F76Y/I96L/K127E/L162R/M171V/N62H/P40V/Q125Y/R42H/S133A/S149N/S66Y/V115G/V209L/W38E); HLA-DR DRB1*0405 (DR4) (Homo sapiens, UniProt P01903+P01911, A100R/A169T/D86S/F76Y/I96L/K127E/L162R/M171V/N62H/P40V/Q125Y/R42H/S133A/S149N/S66Y/V115G/V209L/W38E); HLA-DR DRB1*0701 (DR7) (Homo sapiens, UniProt P01903+P01911, A100R/A102G/A103Q/D57E/D86V/E43K/F76Y/K127E/L162R/M171V/P40G/Q125H/Q99D/R33Q/R42Y/R54Q/S133A/S66F/T210M/V115G/Y107V/Y59L/Y89S); HLA-DR DRB1*0101 (DR1) (Homo sapiens, UniProt P01903+P01911, A100R/D57E/F55L/F60I/F76Y/I96L/L162R/M171V/P40L/Q125E/R42F/V115G/Y59C); HLA-A*0301 (Homo sapiens, UniProt P04439); HLA-A*1101 (Homo sapiens, UniProt P04439, A114D/D185E/E176A/F33Y/L180Q/S129P/T187R); HLA-A*3101 (Homo sapiens, UniProt P04439, A270S/D185E/E176V/E277Q/F33T/G231S/G80R/H175R/I121M/I218V/I322F/K168Q/L300P/L318F/M331R/P217A/Q94H/R138Q/T323A/T345S/T97I/V358M); HLA-A*3301 (Homo sapiens, UniProt P04439, A270S/D185E/E176V/E277Q/E87N/F33T/G231S/H175R/I121M/I218V/I322F/K168Q/K210R/L300P/L318F/M331R/P217A/Q86R/Q94H/R138Q/T323A/T345S/T97I/V358M/Y195H); HLA-A*6801 (Homo sapiens, UniProt P04439, A269V/D185E/E176V/E277Q/E87N/F33Y/G231S/I121M/I166T/I218V/L180W/L300P/L318F/N151K/P208A/P217A/Q86R/R169H/T345S).

What all share (assay): biochemical
Type in all cases: binding

The target in another assay is HLA-DR DRB1*1302 (DR13) (Homo sapiens, UniProt P01903+P01911, A100E/A169T/K41T/L162R/M171V/P40S/Q125H/Q178H/Q39Y/Q99D/R42S/S66N/T262R/V115G/W38E/Y61H). Conditions: DRBI *1302.
HLA-DR DRB1*1302 (DR13), sequence (P01903 26-254 limits assumed, other chains not shown): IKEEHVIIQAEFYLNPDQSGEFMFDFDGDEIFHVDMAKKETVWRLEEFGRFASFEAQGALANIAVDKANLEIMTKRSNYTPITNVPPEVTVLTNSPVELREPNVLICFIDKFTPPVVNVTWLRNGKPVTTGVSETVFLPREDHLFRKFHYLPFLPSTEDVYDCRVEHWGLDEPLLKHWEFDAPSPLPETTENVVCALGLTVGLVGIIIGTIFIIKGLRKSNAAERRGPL
Another assay has as its target HLA-DR DRB1*1501 (DR15) (Homo sapiens, UniProt P01903+P01911). Conditions: DRBI *1501.
Another assay deals with HLA-DR DRB5*0101 (DR51) (Homo sapiens, UniProt P01903+Q30154). Conditions: DRB5 *0101.
The target in another assay is HLA-DR DRB1*1101 (DR11) (Homo sapiens, UniProt P01903+P01911, A100R/A169T/A87E/I96F/K41T/L162R/M171V/P40S/Q125H/Q178H/Q39Y/Q99D/R42S/S66Y/T262R/V115G/W38E). Conditions: DRB1 *1101.
HLA-DR DRB1*1101 (DR11), sequence (P01903 26-254 limits assumed, other chains not shown): as above
For another assay, the target named is HLA-DR DRB4*0101 (DR53) (Homo sapiens, UniProt P01903+P13762, G164S). Conditions: DRB4 *0101.
Another assay has as its target HLA-DR DRB1*0301 (DR3) (Homo sapiens, UniProt P01903+P01911, A100K/A102G/A103R/A169T/F55Y/I96L/K41T/L162R/M171V/P40S/Q125H/Q178H/Q39Y/R42S/S66N/T106N/T262R/W38E/Y61H). Conditions: read-out: DRB1 *0301.

Where two headings read alike, the source gives them in different places. No end group written: not given here. Where only a bound is given, the exact number is not on record here.

HLA-A*1101, sequence (P04439 25-365 limits assumed, stated change not applied): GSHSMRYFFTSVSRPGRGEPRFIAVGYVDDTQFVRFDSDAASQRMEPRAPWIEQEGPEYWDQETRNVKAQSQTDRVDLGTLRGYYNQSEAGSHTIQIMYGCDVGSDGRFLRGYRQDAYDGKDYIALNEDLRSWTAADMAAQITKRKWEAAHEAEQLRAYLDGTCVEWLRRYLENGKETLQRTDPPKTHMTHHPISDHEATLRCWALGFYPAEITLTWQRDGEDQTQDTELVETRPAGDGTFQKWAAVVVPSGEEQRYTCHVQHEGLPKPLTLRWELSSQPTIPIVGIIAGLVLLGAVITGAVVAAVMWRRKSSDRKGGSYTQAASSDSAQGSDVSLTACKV
HLA-DR DRB1*0301 (DR3), sequence (P01903 26-254 limits assumed, other chains not shown): as the sequence (P01903 26-254 limits assumed, other chains not shown) above

Take KKPLNEILIRCIICQ: the values for the IC50 at HLA-DR DRB1*0401 (DR4) (read-out: DRB1 *0401), on HLA-DR DRB1*0405 (DR4) (read-out: DRB1 *0405) and on HLA-DR DRB1*0701 (DR7) (read-out: DRB1 *0701) were 315 nM, 347 nM and 7970 nM, respectively.
Regarding HYCYSLYGTTLEQQY, the IC50 was 546 nM against HLA-DR DRB1*0101 (DR1) (DRB1 *0101); 76 nM on HLA-DR DRB1*0405 (DR4) (DRB1 *0405); 9860 nM against HLA-DR DRB1*0701 (DR7) (DRB1 *0701); over 13700 nM on HLA-DR DRB1*1302 (DR13); 4850 nM at HLA-DR DRB1*1501 (DR15); over 10700 nM against HLA-DR DRB5*0101 (DR51).
As to EFAFKDLFVVYRDS, the IC50 was determined as 2220 nM at HLA-DR DRB1*0401 (DR4) (read-out: DRB1 *0401), 33 nM on HLA-DR DRB1*0405 (DR4) (read-out: DRB1 *0405) and 3690 nM at HLA-DR DRB1*0701 (DR7) (read-out: DRB1 *0701).
Consider LRIVYRDGNPFAVCK, for which the IC50 at HLA-DR DRB1*0401 (DR4) (DRB1 *0401) came out at 16 nM; against HLA-DR DRB1*0405 (DR4) (DRB1 *0405) it was 557 nM; at HLA-DR DRB1*0701 (DR7) (DRB1 *0701), 8990 nM; against HLA-DR DRB1*1101 (DR11), 109 nM; at HLA-DR DRB1*1302 (DR13) it was 123 nM; at HLA-DR DRB4*0101 (DR53), 1570 nM. Further, at HLA-DR DRB5*0101 (DR51), the IC50 was determined as 6820 nM.
For the sequence KVGPGGYPRR, the IC50 amounted to 2270 nM on HLA-A*0301; 487 nM on HLA-A*1101; 250 nM against HLA-A*3101; 7900 nM against HLA-A*3301; 721 nM against HLA-A*6801.
With VTIRVGGQLK, the IC50 at HLA-A*0301 turned out to be 43 nM; at HLA-A*1101 it was 13 nM; against HLA-A*3101 it was 3590 nM; at HLA-A*3301, 86100 nM; against HLA-A*6801 it was 28 nM.
Take ETVRHFPR: the IC50 at HLA-A*0301 was over 13500 nM; at HLA-A*1101, 4180 nM; against HLA-A*3101, 1000 nM; at HLA-A*3301, 81 nM; against HLA-A*6801, 86 nM.
Regarding KTLGISYGR, the IC50 stood at 53 nM on HLA-A*0301; 9.8 nM on HLA-A*1101; 21 nM against HLA-A*3101; 502 nM at HLA-A*3301; 36 nM on HLA-A*6801.
YSVYGTTLER: the IC50 was found to be 430 nM against HLA-A*0301; 96 nM against HLA-A*1101; 2140 nM against HLA-A*3101; 6900 nM on HLA-A*3301; 19 nM on HLA-A*6801.
Consider KQLCDLLIK, for which the IC50 came to 226 nM on HLA-A*0301; 65 nM on HLA-A*1101; 340 nM against HLA-A*3101; 46400 nM against HLA-A*3301; 11900 nM at HLA-A*6801.
For KVRFHNIRGR, in that order: 39 nM, 8630 nM, 27 nM, 4500 nM and 3980 nM.
With QMMNVNLQK, the IC50 turned out to be 20 nM at HLA-A*0301; 7 nM against HLA-A*1101; 504 nM against HLA-A*3101; 6650 nM on HLA-A*3301; 243 nM at HLA-A*6801.
For the sequence QMAVGPGPGK, the IC50 on HLA-A*0301 turned out to be 33 nM; against HLA-A*1101, 16 nM; at HLA-A*3101, 5960 nM; on HLA-A*3301 it was 86700 nM; against HLA-A*6801, 22 nM.
With YDFVFADLRIVYRNG, the IC50 came out at 13 nM on HLA-DR DRB1*0301 (DR3), 1910 nM at HLA-DR DRB1*0401 (DR4) (read-out: DRB1 *0401), 829 nM on HLA-DR DRB1*0405 (DR4) (read-out: DRB1 *0405) and 21400 nM at HLA-DR DRB1*0701 (DR7) (read-out: DRB1 *0701).
Regarding VTIKVGGQLK, the IC50 on HLA-A*0301 was determined as 188 nM; at HLA-A*1101, 59 nM; on HLA-A*3101, 6060 nM; against HLA-A*3301, 47600 nM; on HLA-A*6801 it was 127 nM.
For KTLGISYGRK the same measures were 36 nM, 79 nM, 841 nM, 42400 nM and 1630 nM.
For PVLTSLFNK, the IC50 against HLA-A*0301 amounted to 1950 nM; at HLA-A*1101, 25 nM; against HLA-A*3101, 5110 nM; against HLA-A*3301, 18300 nM; against HLA-A*6801 it was 29900 nM.
Consider RVHSIAGQYR, for which the IC50 against HLA-A*0301 turned out to be 31 nM; on HLA-A*1101 it was 34 nM; on HLA-A*3101, 7.6 nM; on HLA-A*3301, 812 nM; against HLA-A*6801, 28 nM.
Take LLFYSKVRKYR: the IC50 amounted to 28 nM against HLA-A*0301; 94 nM against HLA-A*1101; 7 nM against HLA-A*3101; 11 nM at HLA-A*3301; 15 nM on HLA-A*6801.
IQQLLMGTVNIYCPT: the IC50 at HLA-DR DRB1*0101 (DR1) (read-out: DRB1 *0101) came to 71 nM; on HLA-DR DRB1*0301 (DR3), 93700 nM; on HLA-DR DRB1*0405 (DR4) (read-out: DRB1 *0405), 624 nM.
Consider FAFADLTVVY, for which the IC50 came to 18600 nM on HLA-A*0301; 5870 nM against HLA-A*1101; 23700 nM against HLA-A*3101; 26800 nM at HLA-A*3301; 402 nM on HLA-A*6801.
Turning to NSVYGETLER, the IC50 on HLA-A*0301 was 150 nM; against HLA-A*1101, 25 nM; against HLA-A*3101 it was 163 nM; at HLA-A*3301, 1330 nM; against HLA-A*6801, 18 nM.
For LTISYGRK, the IC50 at HLA-A*0301 turned out to be 988 nM; at HLA-A*1101 it was 708 nM; at HLA-A*3101 it was 27100 nM; against HLA-A*3301 it was 38200 nM; against HLA-A*6801 it was 482 nM.
For DTIPHAACHK the same measures were 2370 nM, 701 nM, 1760 nM, 9.3 nM and 23 nM.
On to TLYQIQVMKR, for which the IC50 is 361 nM against HLA-A*0301; 164 nM at HLA-A*1101; 397 nM against HLA-A*3101; 558 nM against HLA-A*3301; 90 nM against HLA-A*6801.
For GVDGLIYSK the same measures were 10100 nM, 47 nM, over 17700 nM, over 29700 nM and 5100 nM.
Take RVHFASPLH: the IC50 is 12 nM at HLA-A*0301; 60 nM at HLA-A*1101; 572 nM against HLA-A*3101; over 123000 nM against HLA-A*3301; 7620 nM against HLA-A*6801.
Take AFCWRPRRR: the IC50 against HLA-A*0301 amounted to 273 nM; against HLA-A*1101, 17900 nM; at HLA-A*3101 it was 60 nM; against HLA-A*3301 it was 75 nM; against HLA-A*6801, 1090 nM.
For the sequence ALERLLSLK, the IC50 against HLA-A*0301 stood at 233 nM; against HLA-A*1101 it was 369 nM; on HLA-A*3101, 3430 nM; at HLA-A*3301, 12800 nM; on HLA-A*6801, 13700 nM.
With GTGISYGRK, the IC50 at HLA-A*0301 was 480 nM; at HLA-A*1101, 77 nM; on HLA-A*3101, 58100 nM; on HLA-A*3301, over 43700 nM; on HLA-A*6801 it was 7410 nM.
Regarding LTFYSKVRK, the IC50 was 3.8 nM against HLA-A*0301; 8 nM on HLA-A*1101; 87 nM on HLA-A*3101; 3380 nM against HLA-A*3301; 13 nM at HLA-A*6801.
